{"source": "patent EP0381989A1", "about": "“New 4'-epi-4'-amino anthracyclines” (FARMITALIA CARLO ERBA S.r.l., priority 1989, dated 1990)", "key": {"[1]": {"test_system": "LoVo/DX cells", "assay": "in vitro cytotoxicity (colony growth inhibition) on LoVo/DX cells", "settings": "for Cytotoxicity after 4h of treatment (IC50) LoVo/DX: lovo/dx cells; for R.I. = Resistance Index = (IC50 LoVo.DX)/(IC50 LoVo): ratio of IC50 on LoVo/DX to IC50 on LoVo, 4h of treatment; for IC50: Homo sapiens, LoVo/DX, read-out: Cytotoxicity after 4h of treatment (IC50) LoVo/DX; for Cytotoxicity after 4h of treatment (IC50) LoVo/DX / IC50: 4 h", "procedure": "(§1) The biological activity of the compounds according to the inventio was tested in vitro against LoVo (human colon adenocarcinoma) and LoVo/DX cells in comparison with doxorubicin and 4-demethoxydaunorubicin (4-dem-DNR). Table 1. Table 1 -"}, "[2]": {"test_system": "LoVo (human colon adenocarcinoma)", "assay": "in vitro cytotoxicity (colony growth inhibition) on LoVo cells", "settings": "for Cytotoxicity after 4h of treatment (IC50) LoVo: lovo cells; for IC50: Homo sapiens, LoVo, 4 h, read-out: Cytotoxicity after 4h of treatment (IC50) LoVo", "procedure": "as §1"}}, "data": [{"compound": "4-demethoxy-6-deoxy-6-amino-3′-deamino-4′-deoxy-4′-epi-amino-daunorubicin [1h]", "values": [{"measurement": "Cytotoxicity after 4h of treatment (IC50) LoVo/DX", "setting": "[1]", "result": 0.0086, "unit": "µg/mL"}, {"measurement": "R.I. = Resistance Index = (IC50 LoVo.DX)/(IC50 LoVo)", "setting": "[1]", "result": 2.2}, {"measurement": "Cytotoxicity after 4h of treatment (IC50) LoVo", "setting": "[2]", "result": 0.004, "unit": "µg/mL"}]}, {"compound": "4-demethyl-6-deoxy-3′-deamino-4′-deoxy-4′-epi-amino-doxorubicin [2d]", "values": [{"measurement": "Cytotoxicity after 4h of treatment (IC50) LoVo/DX", "setting": "[1]", "result": 0.0038, "unit": "µg/mL"}, {"measurement": "R.I. = Resistance Index = (IC50 LoVo.DX)/(IC50 LoVo)", "setting": "[1]", "result": 3.2}, {"measurement": "Cytotoxicity after 4h of treatment (IC50) LoVo", "setting": "[2]", "result": 0.0012, "unit": "µg/mL"}]}, {"compound": "CC(=O)[C@]1(O)Cc2c(O)c3c(c(O)c2[C@@H](O[C@H]2CC[C@@H](N)[C@H](C)O2)C1)C(=O)c1c(O)cccc1C3=O", "note": "[1a, 4-demethyl-3′-deamino-4′-deoxy-4′-epi-amino-daunorubicin]", "values": [{"measurement": "IC50", "setting": "[1]", "result": 0.0027, "unit": "µg/mL"}, {"measurement": "R.I. = Resistance Index = (IC50 LoVo.DX)/(IC50 LoVo)", "setting": "[1]", "result": 2.4}, {"measurement": "IC50", "setting": "[2]", "result": 0.0011, "unit": "µg/mL"}]}, {"compound": "CC(=O)[C@]1(O)Cc2c(O)c3c(c(O)c2[C@@H](O[C@H]2CC[C@@H](N)[C@H](C)O2)C1)C(=O)c1c(F)cccc1C3=O", "note": "[1c, 4-demethoxy-4-fluoro-3′-deamino-4′-deoxy-4′-epi-amino-daunorubicin]", "values": [{"measurement": "IC50", "setting": "[1]", "result": 0.006, "unit": "µg/mL"}, {"measurement": "R.I. = Resistance Index = (IC50 LoVo.DX)/(IC50 LoVo)", "setting": "[1]", "result": 5.0}, {"measurement": "IC50", "setting": "[2]", "result": 0.0012, "unit": "µg/mL"}]}, {"compound": "C[C@@H]1O[C@@H](O[C@H]2C[C@](O)(C(=O)CO)Cc3c2c(O)c2c(c3[N+](=O)[O-])C(=O)c3ccccc3C2=O)CC[C@H]1N", "note": "[2e, 4-demethoxy-11-deoxy-11-nitro-3′-deamino-4′-deoxy-4′-epi-amino-doxorubicin]", "values": [{"measurement": "IC50", "setting": "[1]", "result": 0.205, "unit": "µg/mL"}, {"measurement": "R.I. = Resistance Index = (IC50 LoVo.DX)/(IC50 LoVo)", "setting": "[1]", "result": 4.2}, {"measurement": "IC50", "setting": "[2]", "result": 0.0484, "unit": "µg/mL"}]}, {"compound": "C[C@@H]1O[C@@H](O[C@H]2C[C@](O)(C(=O)CO)Cc3c(O)c4c(c([N+](=O)[O-])c32)C(=O)c2ccccc2C4=O)CC[C@H]1N", "note": "[2f, 4-demethoxy-6-deoxy-6-nitro-3′-deamino-4′-deoxy-4′-epi-amino-doxorubicin]", "values": [{"measurement": "IC50", "setting": "[1]", "result": 2.26, "unit": "µg/mL"}, {"measurement": "R.I. = Resistance Index = (IC50 LoVo.DX)/(IC50 LoVo)", "setting": "[1]", "result": 19.4}, {"measurement": "IC50", "setting": "[2]", "result": 0.116, "unit": "µg/mL"}]}, {"compound": "C[C@@H]1O[C@@H](O[C@H]2C[C@](O)(C(=O)CO)Cc3c(N)c4c(c(O)c32)C(=O)c2ccccc2C4=O)CC[C@H]1N", "note": "[2g, 4-demethoxy-11-deoxy-11-amino-3′-deamino-4′-deoxy-4′-epi-amino-doxorubicin]", "values": [{"measurement": "IC50", "setting": "[1]", "result": 0.109, "unit": "µg/mL"}, {"measurement": "R.I. = Resistance Index = (IC50 LoVo.DX)/(IC50 LoVo)", "setting": "[1]", "result": 5.8}, {"measurement": "IC50", "setting": "[2]", "result": 0.0188, "unit": "µg/mL"}]}, {"compound": "C[C@@H]1O[C@@H](O[C@H]2C[C@](O)(C(=O)CO)Cc3c(O)c4c(c(N)c32)C(=O)c2ccccc2C4=O)CC[C@H]1N", "note": "[2h, 4-demethoxy-6-deoxy-6-amino-3′-deamino-4′-deoxy-4′-epi-amino-doxorubicin]", "values": [{"measurement": "IC50", "setting": "[1]", "result": 0.09, "unit": "µg/mL"}, {"measurement": "R.I. = Resistance Index = (IC50 LoVo.DX)/(IC50 LoVo)", "setting": "[1]", "result": 14.5}, {"measurement": "IC50", "setting": "[2]", "result": 0.0062, "unit": "µg/mL"}]}, {"compound": "CC(=O)[C@]1(O)Cc2c(O)c3c(c(O)c2[C@@H](O[C@H]2C[C@H](N)[C@H](O)[C@H](C)O2)C1)C(=O)c1ccccc1C3=O", "note": "[4-dem-DNR, 4-demethoxydaunorubicin, reference compound]", "values": [{"measurement": "IC50", "setting": "[1]", "result": 0.125, "unit": "µg/mL"}, {"measurement": "R.I. = Resistance Index = (IC50 LoVo.DX)/(IC50 LoVo)", "setting": "[1]", "result": 6}, {"measurement": "IC50", "setting": "[2]", "result": 0.02, "unit": "µg/mL"}]}, {"compound": "COc1cccc2c1C(=O)c1c(O)c3c(c(O)c1C2=O)C[C@@](O)(C(=O)CO)C[C@@H]3O[C@H]1C[C@H](N)[C@H](O)[C@H](C)O1", "note": "[Doxorubicin, doxorubicin, reference compound]", "values": [{"measurement": "IC50", "setting": "[1]", "result": 2.18, "unit": "µg/mL"}, {"measurement": "R.I. = Resistance Index = (IC50 LoVo.DX)/(IC50 LoVo)", "setting": "[1]", "result": 36}, {"measurement": "IC50", "setting": "[2]", "result": 0.06, "unit": "µg/mL"}]}]}
